Laboratory results from publication PMC3816974 (Bioorganic & medicinal chemistry, 2013).
In brackets after ≈: the same amount, converted by molar mass.

test system: Vero cells; assay: Vero cell cytotoxicity MTT assay; format: cell-based, green monkey; settings: 72 h, concentration that inhibited 50% viability

With O=C(Nc1nc(-c2ccccn2)cs1)c1ccccc1OCc1ccccc1 [Compound 39] the “EC50, μM” value was “insol”.

test system: Mtb; assay: not given; settings: reported values; cited from earlier work

In order of falling “reported MIC (HTS results)” value:
1. Fc1ccc(Nc2nc(-c3ccccn3)cs2)cc1 [Compound 12]  2 µM
2. Clc1ccc(Nc2nc(-c3ccccn3)cs2)nc1 [Compound 18]  0.35 µM
3. Cc1cccc(Nc2nc(-c3ccccn3)cs2)n1 [Compound 19]  0.35 µM

In the case of FC(F)(F)c1ccccc1Nc1nc(-c2ccccn2)cs1 [Compound 13], the “reported MIC (HTS results)” value is listed as less than 0.3 µM.

test system: M. tuberculosis H37Rv; assay: M. tuberculosis H37Rv MIC assay; format: cell-based, Mycobacterium tuberculosis; settings: not given

With “2-[N-(Benzoyl)amino]-4-(thiazol-2-yl)thiazole [Compound 92]” the “MIC, μM (7H9-glucose)” value was greater than 25 µM.

same assay, conditions: M. tuberculosis H37Rv

In the case of “2-[N-(Benzoyl)amino]-4-(thiazol-2-yl)thiazole [Compound 92]”, the “antitubercular activity (in words)” value is reported as “inactive”.
In the case of O=C(Nc1nc(-c2ccccc2)cs1)c1ccccc1 [Compound 90, 2-[N-(Benzoyl)amino]-4-(phenyl)thiazole], the “antitubercular activity (in words)” value is reported as “obliterates all activity”.
In the case of O=C(Nc1nc(-c2cnccn2)cs1)c1ccccc1 [Compound 91, 2-[N-(Benzoyl)amino]-4-(pyrazin-2-yl)thiazole], the “antitubercular activity (in words)” value is reported as “inactive”.

same assay, conditions: M. tuberculosis H37Rv; GAST medium (glycerol and alanine); […]

With “2-[N-(Benzoyl)amino]-4-(thiazol-2-yl)thiazole [Compound 92]” the “MIC, μM (GAST)” value was no less than 25 µM.

same assay, conditions: Mycobacterium tuberculosis, H37RV, read-out: MIC, μM (7H9-butyrate)

First: Cc1ccccc1C(=O)Nc1nc(-c2ccccn2)cs1 [Compound 36]
Second: O=C(Nc1nc(-c2ccccn2)cs1)c1ccccc1O [Compound 45]
The MIC of the first is lower: 0.19 to 0.39 µM (≈ 0.0561 to 0.115 µg/mL) for the first, 1.6 to 3.1 µM (≈ 0.476 to 0.922 µg/mL) for the second.

First: Cc1cccc(C(=O)Nc2nc(-c3ccccn3)cs2)c1 [Compound 37]
Second: COc1ccc(C(=O)Nc2nc(-c3ccccn3)cs2)cc1 [Compound 44]
The MIC of the first is lower: 0.049 to 0.098 µM (≈ 0.0145 to 0.0289 µg/mL) for the first, 0.19 to 0.39 µM (≈ 0.0592 to 0.121 µg/mL) for the second.

First: COc1ccccc1C(=O)Nc1nc(-c2ccccn2)cs1 [Compound 42]
Second: O=C(Nc1nc(-c2ccccn2)cs1)c1ccccc1Cl [Compound 54]
The MIC of the first is higher: 3.1 to 6.3 µM (≈ 0.965 to 1.96 µg/mL) for the first, 0.19 to 0.39 µM (≈ 0.06 to 0.123 µg/mL) for the second.

Compared with CC(=O)c1ccc(C(=O)Nc2nc(-c3ccccn3)cs2)cc1 [Compound 48], O=C(Nc1nc(-c2ccccn2)cs1)c1ccccn1 [Compound 68] is higher in MIC: 0.19 to 0.39 µM (≈ 0.0614 to 0.126 µg/mL) for the first, 3.1 to 6.3 µM (≈ 0.875 to 1.78 µg/mL) for the second.

O=C(Nc1nc(-c2ccccn2)cs1)c1c(F)cccc1Cl [Compound 66] gave an MIC of 0.39 to 0.78 µM (≈ 0.13 to 0.26 µg/mL).

same assay, conditions: Mycobacterium tuberculosis, H37RV, read-out: MIC, μM (7H9-glucose)

First: FC(F)(F)c1ccccc1Nc1nc(-c2ccccn2)cs1 [Compound 13]
Second: c1ccc(Nc2nc(-c3ccccn3)cs2)nc1 [Compound 17]
The MIC of the first is higher: 12 to 25 µM (≈ 3.86 to 8.03 µg/mL) for the first, 0.78 to 1.6 µM (≈ 0.198 to 0.407 µg/mL) for the second.

CCCC(=O)Nc1nc(-c2ccccn2)cs1 [Compound 21, N-[4-(2-pyridinyl)-1,3-thiazol-2-yl)butyramide] and CC1CC1C(=O)Nc1nc(-c2ccccn2)cs1 (stereo not shown) [Compound 29] cannot be ordered by MIC: 12 to 25 µM (≈ 2.97 to 6.18 µg/mL) for the first, 6.3 to 12.5 µM (≈ 1.63 to 3.24 µg/mL) for the second.

First: O=C(Nc1nc(-c2ccccn2)cs1)C1CC1 [Compound 25]
Second: O=C(Nc1nc(-c2ccccn2)cs1)c1ccco1 [Compound 30]
The MIC of the first is higher: 12 to 25 µM (≈ 2.94 to 6.13 µg/mL) for the first, 3.1 to 6.3 µM (≈ 0.841 to 1.71 µg/mL) for the second.

First: O=C(Nc1nc(-c2ccccn2)cs1)c1ccoc1 [Compound 31]
Second: O=C(Nc1nc(-c2ccccn2)cs1)c1ccsc1 [Compound 33]
The MIC of the first is higher: 3.1 to 6.3 µM (≈ 0.841 to 1.71 µg/mL) for the first, 1.6 to 3.1 µM (≈ 0.46 to 0.891 µg/mL) for the second.

O=C(Nc1nc(-c2ccccn2)cs1)c1cccs1 [Compound 32] and O=C(Nc1nc(-c2ccccn2)cs1)c1ccncc1 [Compound 70] fall in the same range of MIC: 1.6 to 3.1 µM (≈ 0.46 to 0.891 µg/mL) for the first, 1.6 to 3.1 µM (≈ 0.452 to 0.875 µg/mL) for the second.

Compared with Cc1cccc(C(=O)Nc2nc(-c3ccccn3)cs2)c1 [Compound 37], O=C(Nc1nc(-c2ccccn2)cs1)c1cccc(Br)c1 [Compound 52] is lower in MIC: 0.19 to 0.39 µM (≈ 0.0561 to 0.115 µg/mL) for the first, 0.098 to 0.19 µM (≈ 0.0353 to 0.0684 µg/mL) for the second.

First: O=C(Nc1nc(-c2ccccn2)cs1)c1cccc(OCc2ccccc2)c1 [Compound 40]
Second: O=C(Nc1nc(-c2ccccn2)cs1)c1ccc(OCc2ccccc2)cc1 [Compound 41]
The MIC of the first is higher: 0.39 to 0.78 µM (≈ 0.151 to 0.302 µg/mL) for the first, 0.19 to 0.39 µM (≈ 0.0736 to 0.151 µg/mL) for the second.

COc1cccc(C(=O)Nc2nc(-c3ccccn3)cs2)c1 [Compound 43] and O=C(Nc1nc(-c2ccccn2)cs1)c1cccc(Cl)c1 [Compound 55, N-(3-Chlorobenzoyl)-4-(2-pyridinyl)-1,3-thiazol-2-amine] fall in the same range of MIC: 0.19 to 0.39 µM (≈ 0.0592 to 0.121 µg/mL) for the first, 0.19 to 0.39 µM (≈ 0.06 to 0.123 µg/mL) for the second.

First: O=C(Nc1nc(-c2ccccn2)cs1)c1ccccc1O [Compound 45]
Second: O=C(Nc1nc(-c2ccccn2)cs1)c1ccccc1Br [Compound 51]
The MIC of the first is higher: 1.6 to 3.1 µM (≈ 0.476 to 0.922 µg/mL) for the first, 0.39 to 0.78 µM (≈ 0.14 to 0.281 µg/mL) for the second.

First: O=C(Nc1nc(-c2ccccn2)cs1)c1ccccc1[N+](=O)[O-] [Compound 49]
Second: O=C(Nc1nc(-c2ccccn2)cs1)c1ccccc1Cl [Compound 54]
The MIC of the first is higher: 1.6 to 3.1 µM (≈ 0.522 to 1.01 µg/mL) for the first, 0.39 to 0.78 µM (≈ 0.123 to 0.246 µg/mL) for the second.

Compared with O=C(Nc1nc(-c2ccccn2)cs1)c1cccc([N+](=O)[O-])c1 [Compound 50], O=C(Nc1nc(-c2ccccn2)cs1)c1cccc(F)c1 [Compound 58] is lower in MIC: 1.6 to 3.1 µM (≈ 0.522 to 1.01 µg/mL) for the first, 0.19 to 0.39 µM (≈ 0.0569 to 0.117 µg/mL) for the second.

First: O=C(Nc1nc(-c2ccccn2)cs1)c1ccccc1F [Compound 57]
Second: O=C(Nc1nc(-c2ccccn2)cs1)c1ccc(F)cc1F [Compound 61]
The MIC of the first is higher: 1.6 to 3.1 µM (≈ 0.479 to 0.928 µg/mL) for the first, 0.39 to 0.78 µM (≈ 0.124 to 0.248 µg/mL) for the second.

First: O=C(Nc1nc(-c2ccccn2)cs1)c1ccc(F)c(F)c1 [Compound 64]
Second: O=C(Nc1nc(-c2ccccn2)cs1)c1cccnc1Cl [Compound 67]
The MIC of the first is higher: 1.6 to 3.1 µM (≈ 0.508 to 0.984 µg/mL) for the first, 0.39 to 0.78 µM (≈ 0.124 to 0.247 µg/mL) for the second.

same assay, conditions: relative to 1

In the case of O=C(Nc1nc(-c2ccccn2)cs1)c1ccccc1 [Compound 35, 2-[N-(Benzoyl)amino]-4-(pyridin-2-yl)thiazole], the “fold better MIC than the corresponding N-phenyl 1” value is reported as 64 fold.

same assay, conditions: relative to 35

In the case of Cc1cccc(C(=O)Nc2nc(-c3ccccn3)cs2)c1 [Compound 37], the “fold increase in potency relative to benzoyl 35” value is reported as 2- to 4 fold.

For O=C(Nc1cc(-c2ccccn2)cs1)c1ccccc1 [Compound 75, 2-[N-(Benzoyl)amino]-4-(pyridin-2-yl)thiophene], the “fold loss of potency relative to the parent thiazole 35” value was no less than 64 fold.
For O=C(Nc1nc(-c2ccccn2)c[nH]1)c1ccccc1 [Compound 78, 2-[N-(Benzoyl)amino]-4-(pyridin-2-yl)imidazole], the “fold loss of potency relative to the parent thiazole 35” value was 16- to 64 fold.
For O=C(Nc1nc(-c2ccccn2)co1)c1ccccc1 [Compound 82, 2-[N-(Benzoyl)amino]-4-(pyridin-2-yl)oxazole], the “fold loss of potency relative to the parent thiazole 35” value was 16- to 64 fold.

same assay, conditions: relative to 69

For O=C(Nc1nc(-c2ccccn2)cs1)c1cccnc1Cl [Compound 67], the “fold improvement of activity over nicotinoyl 69” value was 8- to 16 fold.

same assay, conditions: relative to oxazole 82

In the case of O=C(Nc1nnc(-c2ccccn2)o1)c1ccccc1F [Compound 83, 2-[N-(2-Fluorobenzoyl)amino]-5-(pyridin-2-yl)-1,3,4-oxadiazole], the “regain in potency relative to 82” value is reported as 2–4.
